# Counter-ions that a name gives are not always drawn.
# Key:
# [1] = tested on: norepinephrine (NE) uptake; assay: Inhibition of norepinephrine uptake in vitro: synaptosomal uptake of 14C-l-norepinephrine in rat cortical synaptosomes; type: biochemical, rat (male Sprague-Dawley); conditions: 100 nM 14C-NE, 37° C., 5 min
# Procedure: (§1) This general procedure is set forth by Wong et al., in Drug Development Research 6:397-403 (1985).
# (§2) Male Sprague-Dawley rats (110-150 g) from Harlan Industries (Cumberland, IN) were fed a Purina Chow ad libitum for at least 3 days before being used in the studies. Rats were killed by decapitation. Whole brains were removed and dissected. Cerebral cortex was homogenized in 9 volumes of a medium containing 0.32 M sucrose and 10 mM glucose. Crude synaptosomal preparations were isolated after differential centrifugation at 1,000 g for 10 min. and 17,000 g for 28 min. The final pellets were suspended in the same medium and kept in ice until use within the same day.
# (§3) Synaptosomal uptake of ^3 H-serotonin(^3 H-5hydroxytryptamine, ^3 H-5HT) and ^14 C-l-norepinephrine (^14 C-NE) was determined as follows. Cortical synaptosomes (equivalent to 1 mg of protein) were incubated at 37° C. for 5 min in 1 ml of Krebs-bicarbonate medium containing also 10 mM glucose, 0.1 mM iproniazid, 1 mM ascorbic acid, 0.17 mM EDTA, 50 nM ^3 H-5HT and 100 nM ^14 C-NE The reaction mixture was immediately diluted with 2 ml of ice-chilled Krebs-bicarbonate buffer and filtered under vacuum with a cell harvester (Brandel, Gaithersburg, MD). Filters were rinsed twice with approximately 5 ml of ice-chilled 0.9% saline and were transferred to a counting vial containing 10 ml of scintillation fluid (PCS, Amersham, Arlington Heights, IL). Radioactivity was measured by a liquid scintillation spectrophotometer. Accumulation of ^3 H-5HT and ^14 C-NE at 4° C. represented the background and was subtracted from all samples.
# serotonin (5HT) uptake = assay: Inhibition of 5HT uptake in vitro: synaptosomal uptake of 3H-serotonin in rat cortical synaptosomes; type: biochemical, rat (male Sprague-Dawley); conditions: 50 nM 3H-5HT, 37° C., 5 min
# Procedure: as §1, §2, §3
SMILES,IC50 (serotonin (5HT) uptake) [nM],IC50 [1] [nM],"percent inhibition at 1000 nM, NE (number in parentheses) [1] [%]",other results
"CNCCC(Oc1cccc2ccccc12)c1cccs1 (single isomer, unassigned; (-)) [Example 39, (-)-N-methyl-3-(1-naphthalenyloxy)-3-(2-thienyl)propanamine oxalate]",,,,IC50 ([1]; oxalate): 34 nM; IC50 (serotonin (5HT) uptake; oxalate): […]
"CN(C)CCC(Oc1ccc(C(F)(F)F)cc1)c1ccco1 (stereo not drawn) [Example 21, N,N-Dimethyl-3-[4-(trifluoromethyl)phenoxy]-3-(2-furanyl)propanamine]",140,,14,
"CNCCC(Oc1ccc(C)cc1)c1cccs1 (stereo not drawn) [Example 26, N-Methyl-3-(4-methylphenoxy)-3-(2-thienyl)propanamine oxalate]",112,22,,
"CN(C)CCC(Oc1cccc2ccccc12)C1CCCCC1 (stereo not drawn) [Example 33, N,N-Dimethyl-3-(1-naphthalenyloxy)-3-(cyclohexyl)propanamine oxalate]",210,,47,
"CN(C)CCC(Oc1ccc(C(F)(F)F)cc1)C1CCCCC1 (stereo not drawn) [Example 35, N,N-Dimethyl-3-[4-(trifluoromethyl)phenoxy]-3-(cyclohexyl)propanamine oxalate]",260,,21,
"COc1ccc(OC(CCN(C)C)c2cccs2)cc1 (stereo not drawn) [Example 29, N,N-Dimethyl-3-(4-methoxyphenoxy)-3-(2thienyl)propanamine oxalate]",410,,18,
"CN(C)CCC(Oc1ccc(Cl)cc1)c1cccs1 (stereo not drawn) [Example 25, N,N-Dimethyl-3-(4-chlorophenoxy)-3-(2-thienyl)propanamine oxalate]",170,820,,
"CNCCC(Oc1ccc(C(F)(F)F)cc1)C1CCCCC1 (stereo not drawn) [Example 34, N-Methyl-3-[4-(trifluoromethyl)phenoxy]-3(cyclohexyl)propanamine oxalate]",79,285,,
"CN(C)CCC(Oc1ccc(C(F)(F)F)cc1)c1cccs1 (stereo not drawn) [Example 18, N,N-Dimethyl-3-[4-(trifluoromethyl)phenoxy]-3-(-22-thienyl)propanamine oxalate]",190,,15,
"CN(C)CCC(Oc1ccc(C(F)(F)F)c2ccccc12)c1cccs1 (stereo not drawn) [Example 6, N,N-Dimethyl-3-[4-(trifluoromethyl)-1naphthalenyloxy]-3-(2-thienyl)propanamine oxalate]",114,,9,
"CNCCC(Oc1ccc(Cl)cc1)c1cccs1 (stereo not drawn) [Example 27, N-Methyl-3-(4-chlorophenoxy)-3-(2-thienyl)propanamine oxalate]",91,59,,
"Cc1ccc(OC(CCN(C)C)c2cccs2)cc1 (stereo not drawn) [Example 24, N,N-Dimethyl-3-(4-methylphenoxy)-3-(2-thienyl)propanamine oxalate]",125,430,,
"CN(C)CCC(Oc1ccc(C(F)(F)F)cc1)c1ccco1 (stereo not drawn) [Example 17, N,N-Dimethyl-3-[4-(trifluoromethyl)phenoxy]-3-(2-furanyl)propanamine oxalate]",,,,"percent inhibition at 1000 nM, NE (number in parentheses) ([1]; oxalate): 5%; IC50 (serotonin (5HT) uptake; oxalate): 210 nM"
"CNCCC(Oc1ccc(C(F)(F)F)cc1)c1ccco1 (stereo not drawn) [Example 23, N-Methyl-3-[4-(trifluoromethyl)phenoxy]-3-(2-furanyl)propanamine oxalate]",54,1100,,
"CN(C)CCC(Oc1ccc(C(F)(F)F)cc1)c1ccsc1 (stereo not drawn) [Example 19, N,N-Dimethyl-3-[4-(trifluoromethyl)phenoxy]-3-(3-thienyl)propanamine oxalate]",125,,17,
"CNCCC(Oc1ccc(C(F)(F)F)cc1)c1cccs1 (stereo not drawn) [Example 20, N-Methyl-3-[4-(trifluoromethyl)phenoxy-3-(2-thienyl)propanamine oxalate]",46,,52,

# Now from value to compound, other results behind:
IC50 (serotonin (5HT) uptake) [nM],IC50 [1] [nM],SMILES,"percent inhibition at 1000 nM, NE (number in parentheses) [1] [%]",other results
70,205,"CNCCC(Oc1cccc2ccccc12)c1nccs1 (stereo not drawn) [Example 16, N-Methyl-3-(1-naphthalenyloxy)-3-(2-thiazolyl)propanamine oxalate]",,
100,,"CNCCC(Oc1ccc(C(F)(F)F)cc1)c1ccsc1 (stereo not drawn) [Example 22, N-Methyl-3-[4-(trifluoromethyl)phenoxy]-3-(3-thienyl)propanamine oxalate]",36,
125,90,"CNCCC(Oc1cccc2ccccc12)C1CCCCC1 (stereo not drawn) [Example 15, N-Methyl-3-(1-naphthalenyloxy)-3-cyclohexylpropanamine oxalate]",,
315,315,"CN(C)CCC(Oc1cccc2ccccc12)c1cccnc1 (stereo not drawn) [Example 37, N,N-Dimethyl-3-(1-naphthalenyloxy)-3-(3-pyridyl)propanamine oxalate]",,
25,630,"CN(C)CCC(Oc1cccc2ccccc12)c1ccsc1 (stereo not drawn) [Example 8, N,N-Dimethyl-3-(1-naphthalenyloxy)-3-(3-thienyl)propanamine oxalate]",,
49,77,"CNCCC(Oc1ccc(Cl)c2ccccc12)c1cccs1 (stereo not drawn) [Example 11, N-Methyl-3-(4-chloro-1-naphthalenyloxy)-3-(2-thienyl)propanamine oxalate]",,
50,510,"CN(C)CCC(Oc1cccc2ccccc12)c1nccs1 (stereo not drawn) [Example 32, N,N-Dimethyl-3-(1-naphthalenyloxy)-3-(2thiazolyl)propanamine oxalate]",,
95,,"CNCCC(Oc1ccc(C(F)(F)F)c2ccccc12)c1cccs1 (stereo not drawn) [Example 7, N-Methyl-3-[4-(trifluoromethyl)-1-naphthalenyloxy]-3-(2-thienyl)propanamineoxalate]",46,
36,,"CN(C)CCC(Oc1ccc(Cl)c2ccccc12)c1cccs1 (stereo not drawn) [Example 10, N,N-Dimethyl-3-(4-chloro-1-naphthalenyloxy)-3-(2-thienyl)propanamine oxalate]",31,
62,725,"CN(C)CCC(Oc1cccc2ccccc12)c1ccc(Cl)s1 (stereo not drawn) [Example 5, N,N-Dimethyl-3-(1-naphthalenyloxy)-3-(5-chloro-2-thienyl)propanamine oxalate]",,
76,,"Cc1ccsc1C(CCN(C)C)Oc1cccc2ccccc12 (stereo not drawn) [Example 4, N,N-Dimethyl-3-(1-naphthalenyloxy)-3-(3-methyl-2-thienyl)propanamine oxalate]",41,
55,720,"Cc1ccc(C(CCN(C)C)Oc2cccc3ccccc23)s1 (stereo not drawn) [Example 3, N,N-Dimethyl-3-(1-naphthalenyloxy)-3-(5-methyl-2-thienyl)propanamine oxalate]",,
13,600,"CN(C)CCC(Oc1cccc2ccccc12)c1cccs1 (stereo not drawn) [Example 1, N,N-Dimethyl-3-(1-naphthalenyloxy)-3-(2-thienyl)propanamine oxalate]",,
50,260,"CNCCC(Oc1ccc(OC)cc1)c1cccs1 (stereo not drawn) [Example 28, N-Methyl-3-(4-methoxyphenoxy)-3-(2-thienyl)propanamine oxalate]",,
58,,"Cc1ccc(OC(CCN(C)C)c2cccs2)c2ccccc12 (stereo not drawn) [Example 12, N,N-Dimethyl-3-(4-methyl-1-naphthalenyloxy)-3-(2-thienyl)propanamine oxalate]",40,
11,30,"CN(C)CCC(Oc1cccc2ccccc12)c1ccco1 (stereo not drawn) [Example 30, N,N-Dimethyl-3-(1-naphthalenyloxy)-3-(2furanyl)propanamine oxalate]",,
18,69,"CNCCC(Oc1cccc2ccccc12)c1ccsc1 (stereo not drawn) [Example 9, N-Methyl-3-(1-naphthalenyloxy)-3-(3-thienyl)propanamine oxalate]",,
20,22.7,"CNCCC(Oc1cccc2ccccc12)c1ccco1 (stereo not drawn) [Example 31, N-Methyl-3-(1-naphthalenyloxy)-3-(2-furanyl)propanamine oxalate]",,

# From patent US5023269A, “3-aryloxy-3-substituted propanamines” (Eli Lilly and Company, priority 1990, dated 1991)
